Experimental data: patent EP2420510B1, “Nicotinoyl peptide derivatives and cosmetic composition comprising the same” (BIO-FD&C Co., Ltd., priority 2010, dated 2013)
Residues, ends and D or L forms follow the SMILES beside them.

What was measured:
[1] = test system: Human fibroblasts; assay: Cytotoxicity test (MTT, cell growth effect); type: cell-based; details: 100 µM, 24 hours, MTT absorbance at 570 nm relative to purified water control (=100)
Protocol: (§1) 50 µl of 3-(4,5-dimethylthiazol-2-yl)-2,5-diphenyltetrazolium bromide (MTT, Sigma M5655, USA) solution (2.5 mg/mℓ) was added to the culture solution, followed by further culturing for 3 hours. Then, the culture solution was centrifuged to remove a supernatant, and 200 µl of dimethylsulfoxide (DMSO, Sigma D2650, USA) was added to each well and vortexed for 20 minutes to dissolve formazan crystals formed. 100 µl of the resulting solution was added to a 96-well plate and its absorbance was measured at 570 nm with enzyme-linked immunosorbent assay (ELISA).

[2] = test system: Human fibroblasts (primary cell line, CCD-986sk); details: 100 µM, 24 hours, CCD-986sk fibroblasts, PIP ELISA absorbance at 450 nm relative to purified water control (=100)
Protocol: Human fibroblasts (primary cell line, CCD-986sk) were seeded to a plate and cultured in Dulbecco's modified Eagle's medium (DMEM) supplemented with penicillin (100 IU/ml), streptomycin (100µg/ml) and 10% fetal bovine serum (FBS) at 37 °C with 5% CO2.
The cultured cells were divided to a 48-well plate in 5×10^4 cells/well and cultured for 24 hours. […] The amount of collagen generated in the culture solution was measured with procollagen type I C-peptide (PIP) (Takara, MK101) ELISA.
After 100 µℓ of antibody-PoD conjugate solution was added to each well, 20 µℓ of the culture solution diluted to 1/5 and standard solution were added and cultured at 37 °C for 3 hours. Then, each well was washed four times with 400 µℓ of PBS. 100 µℓ of color coupler was added and cultured at room temperature for 15 minutes. Then, 100 µℓ of IN sulfuric acid was added and the absorbance was measured at 450 nm with a ELISA reader.
Collagen generation activity = (Absorbance of peptide treated group)/(Absorbance of control) X 100 [formula]

[3] = test system: iNOS; assay: Anti-inflammatory activity test (iNOS activity inhibition test; nitric oxide by Griess reagent after LPS); type: cell-based, murine; details: Mus musculus; amount of nitric oxide produced relative to group treated with LPS only (=100); 100 µM pre-treatment 18 hours, then LPS 24 hours, Raw264.7 cells; read-out: Yields (%)
Protocol: Raw264.7 cells (murine macrophage cell line) were suspended in 10% fetal bovine serum-Dulbecco's modified Eagle's medium (FBS-DMEM) without […] (GIBCO) in […] and seed to a 24-well plate.
Then, […] of lipopolysaccharide (LPS, Sigma) was added and cultured for 24 hours. Afterwards, 100µℓ of the obtained supernatant was added to a 96-well plate and the same amount of Griess reagent (Sigma) was added, followed by light vortexing at room temperature for 10 minutes. The absorbance was measured at 570 nm.
The calibration curve was prepared using sodium nitrite as a standard, and the amount of nitric oxide produced in the culture solution was calculated. […]

[4] = Cytotoxicity test (MTT, cell growth effect); type: cell-based; details: human fibroblasts, MTT absorbance at 570 nm relative to purified water control (=100)
Protocol: as §1

Row | SMILES | Cell Growth Effect (%) [1] [%] | Collagen Generation Activity (%) [2] [%] | activity at 100 µM [3] [%] | viability at 24 h, 100 µM [4] [%]
1 | O=C(O)CNC(=O)[C@H](CS)NC(=O)CC[C@H](NC(=O)c1cccnc1)C(=O)O [Comparative Example 1, nicotinoyl-tripeptide (γ-glutamyl-cysteinyl-glycine (SEO ID No:13))] | 98.3 |  |  | 
2 | C[C@@H](O)[C@H](NC(=O)[C@H](CCCCN)NC(=O)c1cccnc1)C(=O)N[C@H](C(=O)N[C@@H](CCCCN)C(=O)N[C@@H](CO)C(=O)O)[C@@H](C)O [Comparative Example 2, nicotinoyl-pentapeptide (lysyl-threonyl-threonyl-lysyl-serine (SEQ ID No:12))] (HELM PEPTIDE1{[O=C(c1cccnc1)[*:2]].K.T.T.K.S}$$$$V2.0) | 97.6 |  |  | 
3 | CSCC[C@H](NC(=O)[C@H](Cc1ccccc1)NC(=O)CNC(=O)CNC(=O)[C@H](Cc1ccc(O)cc1)NC(=O)c1cccnc1)C(=O)O [Example 1, nicotinoyl-pentapeptide (tyrosyl-glycyl-glycyl-phenylalanyl-methionine (SEQ ID No:1))] | 102.1 |  |  | 
4 | CC(C)C[C@H](NC(=O)[C@H](Cc1ccccc1)NC(=O)CNC(=O)CNC(=O)[C@H](Cc1ccc(O)cc1)NC(=O)c1cccnc1)C(=O)O [Example 2, nicotinoyl-pentapeptide (tyrosyl-glycyl-glycyl-Phenylalanyl-leucine (SEO ID No:2))] | 101.3 |  |  | 
5 | CC(C)C[C@H](NC(=O)[C@H](Cc1ccccc1)NC(=O)CNC(=O)CNC(=O)[C@H](Cc1ccc(O)cc1)NC(=O)c1cccnc1)C(=O)N[C@@H](CCCNC(=N)N)C(=O)N[C@@H](CCCCN)C(=O)N[C@@H](Cc1ccc(O)cc1)C(=O)N1CCC[C@H]1C(=O)O [Example 3, nicotinoyl-nonapeptide (tyrosyl-glycyl-glycyl-phenylalanyl-leucyl-arginyl-lysyl-tyrosyl-proline (SEQ ID No:3))] (HELM PEPTIDE1{[O=C(c1cccnc1)[*:2]].Y.G.G.F.L.R.K.Y.P}$$$$V2.0) | 99.1 |  |  | 
6 | CC(C)C[C@H](NC(=O)[C@H](Cc1ccccc1)NC(=O)CNC(=O)CNC(=O)[C@H](Cc1ccc(O)cc1)NC(=O)c1cccnc1)C(=O)N[C@@H](CCCNC(=N)N)C(=O)N[C@@H](CCCCN)C(=O)N[C@@H](Cc1ccc(O)cc1)C(=O)N1CCC[C@H]1C(=O)N[C@@H](CCCCN)C(=O)O [Example 4, nicotinoyl-decapeptide (tyrosyl-glycyl-glycyl-phenylalanyl-leucyl-arginyl-lysyl-tyrosyl-prolyl-lycine (SEQ ID No:4))] (HELM PEPTIDE1{[O=C(c1cccnc1)[*:2]].Y.G.G.F.L.R.K.Y.P.K}$$$$V2.0) | 98.8 |  |  | 
7 | NC(=O)c1cccnc1 [Nicotinamide] |  | 108.8 | 96.1 | 103
8 | O=C(O)c1cccnc1 [Nicotinic acid] |  | 105.2 | 98.8 | 102
